Test results taken from US8932597B2 (priority 2008, dated 2015).

Key:
HuM2e antibody 23K12 = assay type: binding, human
[1] = system: anti-M2 human monoclonal antibody Z3G1; assay type: binding

| Substance | Signal (peptides that bind to 23K21 and 8I10) (HuM2e antibody 23K12) | Signal (peptides that bind to Z3G1) [1] |
| --- | --- | --- |
| 397 (SLLTEVETPIRNEWGCRCNQSSD; epitope peptide) [compound 397] | 842 | 2376 |
| 398 (SLLTEVETPIRNEWGCRCNRSSD; epitope peptide) [compound 398] | 890 | 2514 |
| 399 (SLLTEVETPIRNEWGCRCNTSSD; epitope peptide) [compound 399] | 795 | 2483 |
| 400 (SLLTEVETPIRNEWGCRCNVSSD; epitope peptide) [compound 400] | 865 | 2476 |
| 401 (SLLTEVETPIRNEWGCRCNWSSD; epitope peptide) [compound 401] | 999 | 2556 |
| 403 (SLLTEVETPIRNEWGCRCNDCSD; epitope peptide) [compound 403] | 772 | 2318 |
| 406 (SLLTEVETPIRNEWGCRCNDFSD; epitope peptide) [compound 406] | 788 | 2395 |
| 407 (SLLTEVETPIRNEWGCRCNDHSD; epitope peptide) [compound 407] | 1200 | 2537 |
| 408 (SLLTEVETPIRNEWGCRCNDISD; epitope peptide) [compound 408] | 962 | 2527 |
| 409 (SLLTEVETPIRNEWGCRCNDKSD; epitope peptide) [compound 409] | 898 | 2484 |
| 410 (SLLTEVETPIRNEWGCRCNDLSD; epitope peptide) [compound 410] | 769 | 2494 |
| 411 (SLLTEVETPIRNEWGCRCNDMSD; epitope peptide) [compound 411] | 744 | 2405 |
| 412 (SLLTEVETPIRNEWGCRCNDNSD; epitope peptide) [compound 412] | 708 | 2389 |
| 413 (SLLTEVETPIRNEWGCRCNDPSD; epitope peptide) [compound 413] | 797 | 2450 |
| 414 (SLLTEVETPIRNEWGCRCNDQSD; epitope peptide) [compound 414] | 739 | 2349 |
| 415 (SLLTEVETPIRNEWGCRCNDRSD; epitope peptide) [compound 415] | 860 | 2502 |
| 416 (SLLTEVETPIRNEWGCRCNDTSD; epitope peptide) [compound 416] | 794 | 2394 |
| 417 (SLLTEVETPIRNEWGCRCNDVSD; epitope peptide) [compound 417] | 772 | 2389 |
| 418 (SLLTEVETPIRNEWGCRCNDWSD; epitope peptide) [compound 418] | 929 | 2491 |
| 420 (SLLTEVETPIRNEWGCRCNDSCD; epitope peptide) [compound 420] | 725 | 2269 |
| 421 (SLLTEVETPIRNEWGCRCNDSED; epitope peptide) [compound 421] | 944 | 2527 |

| Substance | Signal (peptides that bind to 23K21 and 8I10) (HuM2e antibody 23K12) | Signal (peptides that bind to Z3G1) [1] |
| --- | --- | --- |
| 422 (SLLTEVETPIRNEWGCRCNDSFD; epitope peptide) [compound 422] | 947 | 2492 |
| 423 (SLLTEVETPIRNEWGCRCNDSHD; epitope peptide) [compound 423] | 782 | 2353 |
| 425 (SLLTEVETPIRNEWGCRCNDSKD; epitope peptide) [compound 425] | 770 | 2361 |
| 426 (SLLTEVETPIRNEWGCRCNDSLD; epitope peptide) [compound 426] | 779 | 2400 |
| 428 (SLLTEVETPIRNEWGCRCNDSPD; epitope peptide) [compound 428] | 772 | 2344 |
| 430 (SLLTEVETPIRNEWGCRCNDSRD; epitope peptide) [compound 430] | 833 | 2373 |
| 431 (SLLTEVETPIRNEWGCRCNDSTD; epitope peptide) [compound 431] | 701 | 2205 |
| 432 (SLLTEVETPIRNEWGCRCNDSVD; epitope peptide) [compound 432] | 728 | 2232 |
| 433 (SLLTEVETPIRNEWGCRCNDSWD; epitope peptide) [compound 433] | 971 | 2477 |
| 434 (SLLTEVETPIRNEWGCRCNDSYD; epitope peptide) [compound 434] | 862 | 2479 |
| 435 (SLLTEVETP; epitope peptide) [compound 435] | 899 | 2380 |
| 436 (SLLTEVETPI; epitope peptide) [compound 436] | 1084 | 2465 |
| 437 (SLLTEVETPIR; epitope peptide) [compound 437] | 1012 | 2297 |
| 438 (SLLTEVETPIRN; epitope peptide) [compound 438] | 751 | 2130 |
| 440 (SLLTEVETPIRNEW; epitope peptide) [compound 440] | 750 | 2334 |
| 443 (SLLTEVETPIRNEWGCR; epitope peptide) [compound 443] | 864 | 2444 |
| 444 (SLLTEVETPIRNEWGCRC; epitope peptide) [compound 444] | 898 | 2478 |
| 445 (SLLTEVETPIRNEWGCRCN; epitope peptide) [compound 445] | 977 | 2506 |
| 446 (SLLTEVETPIRNEWGCRCND; epitope peptide) [compound 446] | 738 | 2276 |
| 447 (SLLTEVETPIRNEWGCRCNDS; epitope peptide) [compound 447] | 817 | 2348 |
| 448 (SLLTEVETPIRNEWGCRCNDSS; epitope peptide) [compound 448] | 833 | 2325 |
